Source: PMC3665846, “Evolution of a Potential Hormone Antagonist following Gene Splicing during Primate Evolution” (PLoS ONE, 2013)
No end group written: not given here.

Legend:
CCKA receptor [1] = assay: CCKA receptor luciferase reporter assay, agonism; type: cell-based; details: 18 h, CRE-, SRE-, NFAT-
Procedure: (§1) HEK293T cells seeded in 24-well plates were co-transfected by various luciferase reporters (30 ng), the pSV-β-Gal plasmid (3 ng), and the CCKA or CCKB receptor (30 ng). After 1 day, cells were treated in serum-free media for another 18 h with increasing doses of the CCK-8 or CCKsv peptide. For the estimation of antagonistic activities, cells were pre-incubated (30 min.) with the CCKsv peptide before treatment with CCK8 for 18 h. Luciferase activities were determined using luciferase assay kits (Promega) and normalized using β-galactosidase activities. All experiments were performed at least three times in triplicates. Data were analyzed using Graphpad Prism 5.0.

CCKB receptor [2] = assay: CCKB receptor luciferase reporter assay, agonism; type: cell-based; details: 18 h
Procedure: as §1

SK-N-MC cells = assay: Ewing tumor cell growth, SK-N-MC, crystal violet staining; type: cell-based, human; details: CCK-8 0.1 uM, 6 days; for suppression of CCK-stimulated growth, SK-N-MC: serum-free, CCKsv 30 min pre-treatment, at least 3 independent experiments
Procedure: (§2) SK-N-MC and SK-PN-DW cells (1×10^5) were plated in 12-well plates and allowed to attach for 24–36 h. Cells were then cultured in serum-free media with 0.1 uM of the CCK-8 peptide with or without the CCKsv peptide. Fresh media containing peptides were replaced every two days. […] Cell growth was determined by crystal violet staining.

SK-PN-DW cells = assay: Ewing tumor cell growth, SK-PN-DW, crystal violet staining; type: cell-based; details: CCK-8 0.1 uM, 6 days; for suppression of CCK-stimulated growth, SK-PN-DW: serum-free, CCKsv 30 min pre-treatment, at least 3 independent experiments
Procedure: as §2

[3] = system: various cancer cell lines; details: ref [23]–[27]; cited from earlier work
Procedure: Because treatment with a CCK antagonist inhibits proliferation of Ewing tumor cells, CCK antagonist could represent a new therapeutic approach in the management of Ewing's tumor patients. To further confirm the potential antagonist function of CCKsv, we checked if CCKsv could inhibit Ewing tumor cell growth stimulated by CCK. Two Ewing tumor cell lines (SK-N-MC and SK-PN-DW) were cultured with the CCK-8 peptide (0.1 uM) in the presence or absenc ...

[4] = system: release of pancreatic enzymes and the contraction of the gallbladder; details: ref [10]–[12]; cited from earlier work
Excerpt: Alternative splicing allows the generation of various gene products with different functions from a single gene and is a major mechanism of generating protein diversity in eukaryotes [1]–[5]. At least half, or more, of mammalian genes can be alternatively spliced, [2]. Thus, alternative splicing emerges as a major mechanism of generating protein diversity and splicing of coding regions in peptide hormone genes often results in additional protein domains. Calcitonin and calcitonin-related polypeptide represent the classical example of novel hormone evolution from the same gene ...

CCKA receptor [5] = assay: CCKA receptor luciferase reporter assay, antagonism of CCK-8; type: cell-based; details: CCKsv 0.1 uM or 1 uM, 30 min pre-incubation
Procedure: as §1

CCKB receptor [6] = assay: CCKB receptor luciferase reporter assay, antagonism of CCK-8; type: cell-based
Procedure: as §1

LGR7 = assay: relaxin-stimulated CRE-luciferase activity in LGR7-expressing cells (specificity control); type: cell-based; details: CCKsv 0.1 uM or 1 uM, co-treatment with relaxin, Fig. S6

With “CCK-8: CCK-8 peptide purchased from Phoenix Pharmaceuticals Inc. [reference compound]” the “stimulation of luciferase reporters by CCK-8 via CCKA” value (CCKA receptor [1]; HEK293T cells co-transfected with reporter, pSV-β-Gal and CCKA, serum-free, SRF-RE reporters screened, normalized to β-galactosidase, at least three times in triplicates) was “stimulated CRE- and SRF-RE reporters via CCKA”, the “stimulation of luciferase reporters by CCK-8 via CCKB” value (CCKB receptor [2]; HEK293T cells co-transfected with reporter, pSV-β-Gal and CCKB, serum-free, CRE-, SRE-, NFAT-, SRF-RE reporters screened, normalized to β-galactosidase, at least three times in triplicates) was “stimulation of CRE-, SRE- and SRF-RE reporters” and the “responsiveness to CCK-8 of cells with CRE reporter and CCKB receptor” value (CCKB receptor [2]; HEK293T, CRE-luciferase, CCKB, compared with other reporter/receptor combinations (Fig. 3C)) was “most responsive to CCK-8 peptide stimulation”. The “Ewing tumor cell growth with CCK-8, SK-N-MC” value (SK-N-MC cells; serum-free media, replaced every two days, Fig. 4A) was “growth stimulated by CCK-8 peptide” and the “Ewing tumor cell growth with CCK-8, SK-PN-DW” value (SK-PN-DW cells; serum-free media, replaced every two days, Fig. 4B) was “growth stimulated by CCK-8 peptide”.

In the case of Cholecystokinin [CCK], the “cell proliferation in cancer cell lines” value [3] is given as “induces cell proliferation” and the “release of pancreatic enzymes and gallbladder contraction” value [4] is given as “induce the release of pancreatic enzymes and the contraction of the gallbladder”.

For “GKNAASPSLTSALVPRLPMLTLFSSASLMGMTSL-amidated (GKNAASPSLTSALVPRLPMLTLFSSASLMGMTSL-NH2) [CCKsv, splicing variant of human CCK; predicted mature peptide chemically synthesized, C-terminally amidated]”, the “stimulation of G protein pathways by CCKsv via CCKA (agonism)” value (CCKA receptor [1]; HEK293T + CCKA, SRF-RE-luciferase (Gs, Gi, Gq, G12), Fig. S5) was “not capable of stimulating different G proteins (Gs, Gi, Gq, and G12)”, the “stimulation of G protein pathways by CCKsv via CCKB (agonism)” value (CCKB receptor [2]; HEK293T + CCKB, CRE-, SRE-, NFAT-, SRF-RE-luciferase (Gs, Gi, Gq, G12), Fig. S5) was “not capable of stimulating different G proteins (Gs, Gi, Gq, and G12)” and the “inhibition of CCK-8-stimulated CRE luciferase activity, CCKA” value (CCKA receptor [5]; Fig. 3A, HEK293T, increasing doses of CCK-8, 18 h) was “inhibited”. The “inhibition of CCK-8-stimulated SRF luciferase activity, CCKA” value (CCKA receptor [5]; Fig. 3B, HEK293T, increasing doses of CCK-8, 18 h) was “inhibited”, the “suppression of CCK8 actions by CCKsv pretreatment, CCKA” value (CCKA receptor [5]; HEK293T + CCKA, then CCK-8 (various doses) 18 h, luciferase) was “dose-dependent suppression of CCK8 actions” and the “suppression of CCK-8-stimulated CRE luciferase activity” value (CCKB receptor [6]; Fig. 3C, HEK293T + CCKB, CRE reporter, 1 uM CCKsv (30 min pre-incubation), CCK-8 30 nM, 18 h) was about 60%. For the same substance, the “inhibition of CCK-8-stimulated CRE luciferase activity, CCKB” value (CCKB receptor [6]; Fig. 3C, HEK293T, CCKsv 0.1 uM or 1 uM, 30 min pre-incubation, increasing doses of CCK-8, 18 h) was “inhibited”, the “suppression of CCK-8-stimulated SRF luciferase activity” value (CCKB receptor [6]; Fig. 3D, HEK293T + CCKB, SRF reporter, 1 uM CCKsv (30 min pre-incubation), CCK-8 30 nM, 18 h) was about 60% and the “inhibition of CCK-8-stimulated SRF luciferase activity, CCKB” value (CCKB receptor [6]; Fig. 3D, HEK293T, CCKsv 0.1 uM or 1 uM, 30 min pre-incubation, increasing doses of CCK-8, 18 h) was “inhibited”. The “inhibition of CCK-8-stimulated SRE luciferase activity, CCKB” value (CCKB receptor [6]; Fig. 3E, HEK293T, CCKsv 0.1 uM or 1 uM, 30 min pre-incubation, increasing doses of CCK-8, 18 h) was “inhibited”, the “suppression of CCK8 actions by CCKsv pretreatment, CCKB” value (CCKB receptor [6]; HEK293T + CCKB, CCKsv 0.1 uM or 1 uM, 30 min pre-incubation, then CCK-8 (various doses) 18 h, luciferase) was “dose-dependent suppression of CCK8 actions” and the “effect on luciferase activity stimulated by relaxin” value (LGR7) was “did not alter relaxin signaling”. For the same substance, the “suppression of CCK-stimulated growth, SK-N-MC” value (SK-N-MC cells; 0.1 uM CCKsv, Fig. 4A) was 22%, the “suppression of CCK-stimulated growth, SK-N-MC” value (SK-N-MC cells; 1 uM CCKsv, Fig. 4A) was 38% and the “effect of CCKsv on CCK-stimulated growth, SK-N-MC” value (SK-N-MC cells; CCKsv 0.1 uM or 1 uM) was “dose-dependently reduced CCK-stimulated growth”. For the same substance, the “suppression of CCK-stimulated growth, SK-PN-DW” value (SK-PN-DW cells; 0.1 uM CCKsv, Fig. 4B) was 18%, the “suppression of CCK-stimulated growth, SK-PN-DW” value (SK-PN-DW cells; 1 uM CCKsv, Fig. 4B) was 31% and the “effect of CCKsv on CCK-stimulated growth, SK-PN-DW” value (SK-PN-DW cells; CCKsv 0.1 uM or 1 uM) was “dose-dependently reduced CCK-stimulated growth”.
